Assays:
[1] = test system: HBV (genotype D, serotype ayw, Galibert's strain); test: Quantification of virion associated secreted HBV DNA in supernatant of HBV-infected differentiated HepaRG (dHepaRG) cells by qPCR, % of replication vs DMSO; type: cell-based, hepatitis B virus; settings: 1 μM compound, 7 days treatment, DMSO = 100%; for activity at 1 µM: Hepatitis B virus, HepaRG, 168 h, read-out: dHepaRG HBV % of replication at 1 μM compared to DMSO
Description: (§1) From Methods in Lucifora J. et al. (Direct antiviral properties of TLR ligands against HBV replication in immune-competent hepatocytes, Science Scientific Reports, 2018, 8:5390): • 1) HepaRG cells were cultured, as described previously by Gripon P. et al. (Infection of a human hepatoma cell line by hepatitis B virus. Proc Natl Acad Sci USA, 2002, 99, p 15655-15660) on pages 15655 and 15656, in Williams E medium supplemented with 10% fetal calf serum, 50 U penicillin/streptomycin (Gibco-Invitrogen) ml^−1, […] ml^−1 and 5×10^−7 M hydrocortisone hemisuccinate (Roche Diagnostics and Boehringer Mannheim, respectively). The cell cultures were maintained in a 5% CO2 atmosphere at 37° C. During the proliferation phase, culture medium was renewed every 2 days. For differentiation and infection, cells were maintained for 2 weeks in standard medium and then for at least 2 more weeks in medium supplemented with 1.8-2.0% DMSO (Sigma). • 2) Primary Human Hepatocytes (PHH) were freshly prepared from human liver resection as previously described by Lecluyse, E. L. & Alexandre, E. (Isolation and culture of primary hepatocytes from resected human liver tissue. Methods Mol Biol, 2010, 640, p 57-82, https://doi.org/10.1007/978-1-60761-688-7_3) on page 63 paragraph 3. “Methods” from section 3.1. through 3.6.2. page 77. All experimental procedures were conducted in conformity with French laws and regulations and were approved by the National Ethics Committee. • 3) Cell viability was measured by both neutral red and MTS (CellTiter 96 Aqueous One Solution cell proliferation assay; Promega) tests. • 4) HBV inoculum (genotype D, serotype ayw, Galibert's strain referred as NC_003977.2 at NCBI) was prepared from HepAD38 (see Ladner, S. K. et al., Inducible expression of human hepatitis B virus (HBV) in stably transfected hepatoblastoma cells: a novel system for screening potential inhibitors of HBV replication. Antimicrob Agents Chemother, 1997, 41, p 1715-1720) supernatants by polyethylene-glycol-MW-8000 (PEG8000, SIGMA) precipitation (8% final) as previously described by Luangsay, S. et al. (Early inhibition of hepatocyte innate responses by hepatitis B virus. J Hepatol, 2015, 63, p 1314-1322, https://doi.org/10.1016/j.jhep.2015.07.014).
(§2) Viral stocks with titer reaching at least 1×10^10 viral genome equivalent (vge)/mL were tested endotoxin free.
(§3) Differentiated HepaRG (dHepaRG) or PHH were infected by HBV at a multiplicity of infection of 100-200 vge/cell in culture medium containing 4% PEG 8000 (Sigma) for 16 h at 37° C. in 12- or six-well plates. At the end of the incubation period, cells were washed once with medium and then cultured in Williams E medium containing DMSO as indicated. In general infection was left for 7 days before any treatment was started, to allow replication reaching its maximum. • 5) Infected cell treatment with compounds of interest: • 5a: After 7 days of infection with the virus (day 0 to day 7), the dHepaRG cells were treated (3 treatments: day 7, day 10 and day 12) with a […] of the tested compound (diluted with sterile water from a 10 mM stock DMSO solution) or DMSO as reference negative control for 7 more days. • 5b: After 4 days of infection with the virus (day 0 to day 4), the PHH cells were treated (3 treatments: day 4, day 7 and day 9) with a […] of the tested compound (diluted with sterile water from a 10 mM stock DMSO solution) for 7 more days. • 6) Quantification of virion associated secreted HBV DNA in cell culture supernatant:
(§4) At the end of the experiment (7 days treatment) the supernatant of infected and treated cells (either dHepaRG or PHH or others) is collected. It is diluted 1/4 into sterile water (molecular biology quality) then treated for 30 minutes with RNAse (10 unit) and DNAse (10 unit) to remove non encapsidated material. […]

[2] = test system: HBV (genotype D, serotype ayw, Galibert's strain); test: Quantification of virion associated secreted HBV DNA in supernatant of HBV-infected Primary Human Hepatocytes (PHH) by qPCR, % of replication vs DMSO; type: cell-based, hepatitis B virus; settings: 1 μM compound, 7 days treatment, DMSO = 100%; for activity at 1 µM: Hepatitis B virus, Hepatocyte, 168 h, (*) n = 1, read-out: PHH HBV % of replication at 1 μM compared to DMSO
Description: as §1, §2, §3, §4

Compound | activity at 1 µM [1] | activity at 1 µM [2] | dHepaRG HBV % of replication at 1 μM compared to DMSO [1] | PHH HBV % of replication at 1 μM compared to DMSO ([2]; (*) n = 1)
CC(C)OC(=O)CC1COP(=O)(CO[C@H](C)Cn2cnc3c(N)ncnc32)OC1 (single isomer, unassigned) [Example 3a] | ≤ 30% | ≤ 30% |  | 
Nc1ncnc2c1ncn2CCOCP(=O)(O)O [ADF] |  |  | ++ (50% < ++ ≤ 80%) | ++ (50% < ++ ≤ 80%)
COC(=O)CC1COP(=O)(CO[C@H](C)Cn2cnc3c(N)ncnc32)OC1 (stereo partly drawn) [Example 1, (R)-methyl 2-(2-(((1-(6-amino-9H-purin-9-yl)propan-2-yl)oxy)methyl)-2-oxo-1,3,2-dioxaphosphinan-5-yl)acetate] | ≤ 30% | ≤ 30% |  | 
CCOC(=O)CC1COP(=O)(CO[C@H](C)Cn2cnc3c(N)ncnc32)OC1 (stereo partly drawn) [Example 2, (R)-ethyl 2-(2-(((1-(6-amino-9H-purin-9-yl)propan-2-yl)oxy)methyl)-2-oxo-1,3,2-dioxaphosphinan-5-yl)acetate] | ≤ 30% | ≤ 30% |  | 
C[C@H](Cn1cnc2c(N)ncnc21)OCP1(=O)OCC(CC(=O)OC2CCCC2)CO1 (stereo partly drawn) [Example 5, (R)-cyclopentyl 2-(2-(((1-(6-amino-9H-purin-9-yl)propan-2-yl)oxy)methyl)-2-oxo-1,3,2-dioxaphosphinan-5-yl)acetate] | ≤ 30% | ≤ 30% |  | 
CCCCCCOC(=O)CC1COP(=O)(CO[C@H](C)Cn2cnc3c(N)ncnc32)OC1 (stereo partly drawn) [Example 5b, (R)-hexyl 2-(2-(((1-(6-amino-9H-purin-9-yl)propan-2-yl)oxy)methyl)-2-oxo-1,3,2-dioxaphosphinan-5-yl)acetate] | 30 to 50% | ≤ 30% |  | 
CC1COP(=O)(CO[C@H](C)Cn2cnc3c(N)ncnc32)OC1 (stereo partly drawn) [Example 5c, (R)-2-(((1-(6-amino-9H-purin-9-yl)propan-2-yl)oxy)methyl)-5-methyl-1,3,2-dioxaphosphinane 2-oxide] | > 80% | 30 to 50% |  | 
COC(=O)CCC1COP(=O)(CO[C@H](C)Cn2cnc3c(N)ncnc32)OC1 (stereo partly drawn) [Example 6, (R)-methyl 3-(2-(((1-(6-amino-9H-purin-9-yl)propan-2-yl)oxy)methyl)-2-oxido-1,3,2-dioxaphosphinan-5-yl)propanoate] | 50 to 80% | > 80% |  | 
CCOC(=O)CCC1COP(=O)(CO[C@H](C)Cn2cnc3c(N)ncnc32)OC1 (stereo partly drawn) [Example 7, (R)-ethyl 3-(2-(((1-(6-amino-9H-purin-9-yl)propan-2-yl)oxy)methyl)-2-oxo-1,3,2-dioxaphosphinan-5-yl)propanoate] | 50 to 80% | 50 to 80% |  | 
CC(C)OC(=O)CCC1COP(=O)(CO[C@H](C)Cn2cnc3c(N)ncnc32)OC1 (stereo partly drawn) [Example 8, (R)-isopropyl 3-(2-(((1-(6-amino-9H-purin-9-yl)propan-2-yl)oxy)methyl)-2-oxo-1,3,2-dioxaphosphinan-5-yl)propanoate] | 50 to 80% | 50 to 80% |  | 
C[C@H](Cn1cnc2c(N)ncnc21)OCP1(=O)OCC(CCC(=O)OC2CCCC2)CO1 (stereo partly drawn) [Example 10, (R)-cyclopentyl 3-(2-(((1-(6-amino-9H-purin-9-yl)propan-2-yl)oxy)methyl)-2-oxo-1,3,2-dioxaphosphinan-5-yl)propanoate] | 50 to 80% | ≤ 30% |  | 
CCOC(=O)CC1COP(=O)(CO[C@H](C)Cn2cnc3c(NC(C)=O)ncnc32)OC1 (stereo partly drawn) [Example 13, (R)-ethyl 2-(2-(((1-(6-acetamido-9H-purin-9-yl)propan-2-yl)oxy)methyl)-2-oxo-1,3,2-dioxaphosphinan-5-yl)acetate] | 50 to 80% | ≤ 30% |  | 
CCOC(=O)CC1COP(=O)(CO[C@H](C)Cn2cnc3c(N(C(C)=O)C(C)=O)ncnc32)OC1 (stereo partly drawn) [Example 14, (R)-ethyl 2-(2-(((1-(6-(N-acetylacetamido)-9H-purin-9-yl)propan-2-yl)oxy)methyl)-2-oxo-1,3,2-dioxaphosphinan-5-yl)acetate] | 50 to 80% | 50 to 80% |  | 
CCOC(=O)CC1COP(=O)(CO[C@H](C)Cn2cnc3c(NC(=O)CC)ncnc32)OC1 (stereo partly drawn) [Example 15, (R)-ethyl 2-(2-oxo-2-(((1-(6-propionamido-9H-purin-9-yl)propan-2-yl)oxy)methyl)-1,3,2-dioxaphosphinan-5-yl)acetate] | ≤ 30% | ≤ 30% |  | 
CCOC(=O)CC1COP(=O)(CO[C@H](C)Cn2cnc3c(NC(=O)C(C)C)ncnc32)OC1 (stereo partly drawn) [Example 16, (R)-ethyl 2-(2-(((1-(6-isobutyramido-9H-purin-9-yl)propan-2-yl)oxy)methyl)-2-oxo-1,3,2-dioxaphosphinan-5-yl)acetate] | ≤ 30% | ≤ 30% |  | 
CCOC(=O)CC1COP(=O)(CO[C@H](C)Cn2cnc3c(NC(=O)CC(C)C)ncnc32)OC1 (stereo partly drawn) [Example 17, (R)-ethyl 2-(2-(((1-(6-(3-methylbutanamido)-9H-purin-9-yl)propan-2-yl)oxy)methyl)-2-oxo-1,3,2-dioxaphosphinan-5-yl)acetate] | 30 to 50% | ≤ 30% |  | 
CCOC(=O)CC1COP(=O)(CO[C@H](C)Cn2cnc3c(NC(=O)c4ccccc4)ncnc32)OC1 (stereo partly drawn) [Example 19, (R)-ethyl 2-(2-(((1-(6-benzamido-9H-purin-9-yl)propan-2-yl)oxy)methyl)-2-oxo-1,3,2-dioxaphosphinan-5-yl)acetate] | ≤ 30% | ≤ 30% |  | 
CC(C)OC(=O)CC1COP(=O)(CO[C@H](C)Cn2cnc3c(NC(=O)C(C)C)ncnc32)OC1 (stereo partly drawn) [Example 21a, (R)-isopropyl 2-(2-(((1-(6-isobutyramido-9H-purin-9-yl)propan-2-yl)oxy)methyl)-2-oxido-1,3,2-dioxaphosphinan-5-yl)acetate] | ≤ 30% | ≤ 30% |  | 
CC(C)OC(=O)CCC1COP(=O)(CO[C@H](C)Cn2cnc3c(NC(=O)c4ccccc4)ncnc32)OC1 (stereo partly drawn) [Example 25, (R)-isopropyl 3-(2-(((1-(6-benzamido-9H-purin-9-yl)propan-2-yl)oxy)methyl)-2-oxo-1,3,2-dioxaphosphinan-5-yl)propanoate] | 50 to 80% | 50 to 80% |  | 
